Data taken from EP0531958A1, “6-Aminoquinolones, their synthesis and their use as antibacterial agents” (MEDIOLANUM FARMACEUTICI S.P.A., priority 1991, dated 1993).
≈ marks a conversion by molar mass, not a printed value. Where two headings read alike, the source gives them in different places.

What was measured:
Type in all cases: cell-based
[1] = system: Klebsiella pneumoniae ATCC 10031; test: MIC test, agar dilution with Steers multiwell inoculator; conditions: ATCC10031, TSA dishes, 24 h at 35°C, read-out: Minimum Inhibiting Concentration
Protocol: (§1) As to the antibacterial activity, there was determined the Least (Minimum) Inhibiting Concentration (MIC), by working according to the following operative conditions.
(§2) There were used suspensions of test germs (5 gram-positive and 15 gram-negative) having a known titre, kept freezed at -80°C and diluted, at the time of use, in peptonized water up to a concentration of 1-2.10⁷ cfu/ml.
(§3) A few mg of the products, according to the invention were weighed sufficient for preparing parent solutions in DMSO + NaOH (1N) containing 2560 µg/ml (64µg/ml/dish). From the thus prepared parent solutions there were prepared 12 serial dilutions (1:2) down to the concentration of 1.25 µg/ml.
(§4) 0.5 ml of the different dilutions of each product were distributed on dishes containing 19.5 ml of agarized medium (TSA), maintained in a fluid state at the temperature of 50°C. After slight stirring, the dishes were made to solidify and dry under hood (laminar flow).
(§5) The MIC tests (Least or "Minimum" Inhibiting Concentration) were performed by using a Steers multiwell inoculator having 36 wells, each containing 200 µl of bacterial suspension.
(§6) After inoculation, the dishes were placed into a thermostat and checked after 24 h of incubation at 35°C.
(§7) The MIC is defined as the lowermost product concentration (µg/ml) inhibiting the visible growth of the microorganisms.

[2] = system: Escherichia coli ATCC 8739; test: as above; conditions: ATCC8739, TSA dishes, 24 h at 35°C, read-out: Minimum Inhibiting Concentration
Protocol: as §1, §2, §3, §4, §5, §6, §7

[3] = system: Acinebacter calcoloaceticus OSMPV 1130; test: as above; conditions: TSA dishes, 24 h at 35°C, read-out: Minimum Inhibiting Concentration
Protocol: as §1, §2, §3, §4, §5, §6, §7

[4] = system: Enterobacter cloacae OMNF 1174; test: as above; conditions: OMNF1174, TSA dishes, 24 h at 35°C, read-out: Minimum Inhibiting Concentration
Protocol: as §1, §2, §3, §4, §5, §6, §7

[5] = system: Providencia stuardii CNUR 5; test: as above; conditions: CNUR5, TSA dishes, 24 h at 35°C, read-out: Minimum Inhibiting Concentration
Protocol: as §1, §2, §3, §4, §5, §6, §7

[6] = system: Pseudomonas aeruginosa CNUR 4; test: as above; conditions: CNUR4, TSA dishes, 24 h at 35°C, read-out: Minimum Inhibiting Concentration
Protocol: as §1, §2, §3, §4, §5, §6, §7

[7] = system: Enterobacter cloacae OMNF 1153; test: as above; conditions: OMNF1153, TSA dishes, 24 h at 35°C, read-out: Minimum Inhibiting Concentration
Protocol: as §1, §2, §3, §4, §5, §6, §7

[8] = system: Pseudomonas aeruginosa ATCC 9027; test: as above; conditions: ATCC9027, TSA dishes, 24 h at 35°C, read-out: Minimum Inhibiting Concentration
Protocol: as §1, §2, §3, §4, §5, §6, §7

Escherichia coli ISF 432 = test: as above; conditions: ISF432, TSA dishes, 24 h at 35°C, read-out: Minimum Inhibiting Concentration
Protocol: as §1, §2, §3, §4, §5, §6, §7

[9] = system: Streptococcus facealis LEP Br.; test: as above; conditions: TSA dishes, 24 h at 35°C, read-out: Minimum Inhibiting Concentration
Protocol: as §1, §2, §3, §4, §5, §6, §7

[10] = system: Staphylococcus aureus ATCC 6538; test: as above; conditions: ATCC6538, TSA dishes, 24 h at 35°C, read-out: Minimum Inhibiting Concentration
Protocol: as §1, §2, §3, §4, §5, §6, §7

[11] = system: Staphylococcus epidermidis CPHL A2; test: as above; conditions: CPHLA2, TSA dishes, 24 h at 35°C, read-out: Minimum Inhibiting Concentration
Protocol: as §1, §2, §3, §4, §5, §6, §7

Escherichia coli CNUR 8 = test: as above; conditions: CNUR8, TSA dishes, 24 h at 35°C, read-out: Minimum Inhibiting Concentration
Protocol: as §1, §2, §3, §4, §5, §6, §7

[12] = system: Pseudomonas aeruginosa CNUR 2; test: as above; conditions: CNUR2, TSA dishes, 24 h at 35°C, read-out: Minimum Inhibiting Concentration
Protocol: as §1, §2, §3, §4, §5, §6, §7

Proteus vulgaris CNUR 6 = test: as above; conditions: CNUR6, TSA dishes, 24 h at 35°C, read-out: Minimum Inhibiting Concentration
Protocol: as §1, §2, §3, §4, §5, §6, §7

[13] = system: Staphylococcus aureus MPR 5; test: as above; conditions: MPR5, TSA dishes, 24 h at 35°C, read-out: Minimum Inhibiting Concentration
Protocol: as §1, §2, §3, §4, §5, §6, §7

Escherichia coli 120 = test: as above; conditions: TSA dishes, 24 h at 35°C, read-out: Minimum Inhibiting Concentration
Protocol: as §1, §2, §3, §4, §5, §6, §7

[14] = system: Staphylococcus epidermidis HCF Berset C.; test: as above; conditions: TSA dishes, 24 h at 35°C, read-out: Minimum Inhibiting Concentration
Protocol: as §1, §2, §3, §4, §5, §6, §7

Escherichia coli CNUR 1 = test: as above; conditions: CNUR1, TSA dishes, 24 h at 35°C, read-out: Minimum Inhibiting Concentration
Protocol: as §1, §2, §3, §4, §5, §6, §7

Gram + = test: MIC test, average over the 5 gram-positive test germs; conditions: 24 h
Protocol: as §1, §2, §3, §4, §5, §6, §7

Gram - = test: MIC test, average over the 15 gram-negative test germs; conditions: 24 h
Protocol: as §1, §2, §3, §4, §5, §6, §7

[15] = geometrical average of the MIC over the 5 Gram + strains, read-out: Geometrical Average
[16] = geometrical average of the MIC over the 15 Gram - strains, read-out: Geometrical Average
[17] = mean log of the MIC over the 15 Gram - strains, read-out: Log (converted)

| Compound | MIC [1] | MIC [2] | MIC [3] | MIC [4] | MIC [5] | MIC [6] | MIC [7] | MIC [8] | MIC (Escherichia coli ISF 432) | MIC [9] | MIC [10] | MIC [11] | MIC (Escherichia coli CNUR 8) | MIC [12] | MIC (Proteus vulgaris CNUR 6) | MIC [13] | MIC (Escherichia coli 120) | MIC [14] | MIC (Escherichia coli CNUR 1) | MIC (Gram +; [15]) | further results |
| --- | --- | --- | --- | --- | --- | --- | --- | --- | --- | --- | --- | --- | --- | --- | --- | --- | --- | --- | --- | --- | --- |
| Cc1c(N2CCc3ccccc3C2)c(N)cc2c(=O)c(C(=O)O)cn(C3CC3)c12 [Compound 36, 6-amino-1-cyclopropyl-8-methyl-7-[2-(1,2,3,4-tetrahydroisoquinolinyl)]-carboxylic acid] | 0.12 µg/mL (≈ 0.308 µM) | 0.12 µg/mL (≈ 0.308 µM) | 8 µg/mL (≈ 20.5 µM) | 8 µg/mL (≈ 20.5 µM) | 2 µg/mL (≈ 5.14 µM) | 128 µg/mL (≈ 329 µM) | 8 µg/mL (≈ 20.5 µM) | 32 µg/mL (≈ 82.2 µM) | 0.25 µg/mL (≈ 0.642 µM) | 4 µg/mL (≈ 10.3 µM) | 0.5 µg/mL (≈ 1.28 µM) | 1 µg/mL (≈ 2.57 µM) | 2 µg/mL (≈ 5.14 µM) | 8 µg/mL (≈ 20.5 µM) | 64 µg/mL (≈ 164 µM) | 0.5 µg/mL (≈ 1.28 µM) | 2 µg/mL (≈ 5.14 µM) | 2 µg/mL (≈ 5.14 µM) | 4 µg/mL (≈ 10.3 µM) | 1.15 µg/mL | MIC (Gram +; read-out: Log (converted)): 1.15 µg/mL (≈ 2.95 µM); MIC (Gram -; [16]): 3.98 µg/mL (≈ 10.2 µM); MIC (Gram -; [17]): 3.98 µg/mL (≈ 10.2 µM) |
| Nc1cc2c(=O)c(C(=O)O)cn(-c3ccc(F)cc3)c2cc1N1CCSCC1 [Compound 51] | 0.03 µg/mL (≈ 0.0751 µM) | 0.06 µg/mL (≈ 0.15 µM) | 4 µg/mL (≈ 10 µM) | 4 µg/mL (≈ 10 µM) | 4 µg/mL (≈ 10 µM) | 128 µg/mL (≈ 320 µM) | 4 µg/mL (≈ 10 µM) | 128 µg/mL (≈ 320 µM) | 0.03 µg/mL (≈ 0.0751 µM) | 64 µg/mL (≈ 160 µM) | 0.5 µg/mL (≈ 1.25 µM) | 2 µg/mL (≈ 5.01 µM) | 0.5 µg/mL (≈ 1.25 µM) | 128 µg/mL (≈ 320 µM) | 128 µg/mL (≈ 320 µM) | 0.5 µg/mL (≈ 1.25 µM) | 0.5 µg/mL (≈ 1.25 µM) | 2 µg/mL (≈ 5.01 µM) | 4 µg/mL (≈ 10 µM) | 2.3 µg/mL | MIC (Gram +; read-out: Log (converted)): 2.3 µg/mL (≈ 5.75 µM); MIC (Gram -; [16]): 3.01 µg/mL (≈ 7.53 µM); MIC (Gram -; [17]): 3.01 µg/mL (≈ 7.53 µM) |
| Nc1cc2c(=O)c(C(=O)O)cn(-c3ccc(F)cc3)c2cc1N1CCc2ccccc2C1 [Compound 52, 6-amino-1-(4-fluorophenyl)-7-[2-(1,2,3,4-tetrahydroisoquinolinyl)]-1,4-dihydro-4-oxo-quinoline carboxylic acid] | 0.12 µg/mL (≈ 0.279 µM) | 0.12 µg/mL (≈ 0.279 µM) | 4 µg/mL (≈ 9.31 µM) | 4 µg/mL (≈ 9.31 µM) | 8 µg/mL (≈ 18.6 µM) | 128 µg/mL (≈ 298 µM) | 8 µg/mL (≈ 18.6 µM) | 128 µg/mL (≈ 298 µM) | 0.12 µg/mL (≈ 0.279 µM) | 64 µg/mL (≈ 149 µM) | 0.5 µg/mL (≈ 1.16 µM) | 2 µg/mL (≈ 4.66 µM) | 1 µg/mL (≈ 2.33 µM) | 128 µg/mL (≈ 298 µM) | 128 µg/mL (≈ 298 µM) | 1 µg/mL (≈ 2.33 µM) | 1 µg/mL (≈ 2.33 µM) | 4 µg/mL (≈ 9.31 µM) | 4 µg/mL (≈ 9.31 µM) | 3.03 µg/mL | MIC (Gram +; read-out: Log (converted)): 3.03 µg/mL (≈ 7.06 µM); MIC (Gram -; [16]): 4.56 µg/mL (≈ 10.6 µM); MIC (Gram -; [17]): 4.56 µg/mL (≈ 10.6 µM) |
